In patent US10323038B2, “Pyrazole compounds and methods of making and using same” (ABIDE THERAPEUTICS, INC., priority 2015, dated 2019):

How the values were obtained:
MAGL = MAGL (Mus musculus (Mouse), UniProt O35678); test: In vitro competitive activity-based protein profiling, MAGL (mouse); assay type: biochemical; conditions: for inhibition at 1 µM: read-out: MAGL % inh. 1 μM (mouse)
In short: (§1)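 Proteomes at 1.0 mg/mL protein (mouse brain membranes or cell lysates; human prefrontal cortex or cell membranes) preincubated with inhibitor 30 min at 37 °C. Then FP-Rh or HT-01 probe (50 μM stock) added for 30 min at 37 °C. MAGL and FAAH activity measured by SDS-PAGE band fluorescence.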

FAAH = FAAH (Mus musculus (Mouse), UniProt O08914); test: In vitro competitive activity-based protein profiling, FAAH (mouse); assay type: biochemical; conditions: for inhibition at 1 µM: read-out: FAAH % inh. 1 μM (mouse)
Chain of FAAH (O08914 whole entry): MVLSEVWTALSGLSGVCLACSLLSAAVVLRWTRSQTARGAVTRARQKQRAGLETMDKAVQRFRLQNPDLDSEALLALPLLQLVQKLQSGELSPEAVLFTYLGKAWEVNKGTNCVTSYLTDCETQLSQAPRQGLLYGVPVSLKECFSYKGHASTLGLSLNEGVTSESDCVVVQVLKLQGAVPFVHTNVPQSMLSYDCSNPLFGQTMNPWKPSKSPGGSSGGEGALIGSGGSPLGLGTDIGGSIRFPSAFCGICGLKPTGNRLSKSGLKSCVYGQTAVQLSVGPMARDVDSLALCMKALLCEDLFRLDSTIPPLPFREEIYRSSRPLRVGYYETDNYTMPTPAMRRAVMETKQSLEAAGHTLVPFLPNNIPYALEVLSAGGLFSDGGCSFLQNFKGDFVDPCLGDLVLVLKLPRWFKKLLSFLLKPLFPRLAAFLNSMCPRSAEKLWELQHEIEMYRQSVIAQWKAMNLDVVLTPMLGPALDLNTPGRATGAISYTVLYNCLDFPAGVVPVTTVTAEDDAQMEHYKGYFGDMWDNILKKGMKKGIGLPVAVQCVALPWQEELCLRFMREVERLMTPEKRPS
In short: as §1

Chain of MAGL (O35678 whole entry): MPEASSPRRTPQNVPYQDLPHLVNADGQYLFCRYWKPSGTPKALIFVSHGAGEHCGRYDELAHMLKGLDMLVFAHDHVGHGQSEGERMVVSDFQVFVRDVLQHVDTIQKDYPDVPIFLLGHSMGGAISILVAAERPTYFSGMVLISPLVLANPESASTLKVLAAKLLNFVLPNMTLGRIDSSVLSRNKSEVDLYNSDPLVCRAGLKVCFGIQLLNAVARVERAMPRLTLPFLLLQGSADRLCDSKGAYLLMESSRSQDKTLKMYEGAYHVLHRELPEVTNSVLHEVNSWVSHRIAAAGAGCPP

Question: Which IC50 (MAGL) does the source give for `CC(=O)N(C)c1cnn(C(=O)N2CC3CN(Cc4cccc(Cl)c4C)CC3C2)c1` (stereo not drawn) [Example 103, N-(1-(5-(3-chloro-2-methylbenzyl)octahydropyrrolo[3,4-c]pyrrole-2-carbonyl)-1H-pyrazol-4-yl)-N-methylacetamide] here?
Answer: ≤ 100 nM

Question: What about the inhibition at 1 µM (MAGL) of the same compound?
Answer: ≥ 75%

Question: And the IC50 (FAAH)?
Answer: ≤ 100 nM

Question: What about the inhibition at 1 µM (FAAH) of the same compound?
Answer: ≥ 75%

Question: Which inhibition at 1 µM (MAGL) does the source give for `CC(=O)N(C)c1cnn(C(=O)N2CC3CN(Cc4cc(Cl)ccc4C(F)(F)F)CC3C2)c1` (stereo not drawn) [Example 104, N-(1-(5-(5-chloro-2-(trifluoromethyl)benzyl)octahydropyrrolo[3,4-c]pyrrole-2-carbonyl)-1H-pyrazol-4-yl)-N-methylacetamide] here?
Answer: ≥ 75%

Question: What about the inhibition at 1 µM (FAAH) of the same compound?
Answer: ≥ 75%

Question: For `CC(=O)N(C)c1cnn(C(=O)N2CC3CN(Cc4cc(Cl)cc(Cl)c4)CC3C2)c1` (stereo not drawn) [Example 105, N-(1-(5-(3,5-dichlorobenzyl)octahydropyrrolo[3,4-c]pyrrole-2-carbonyl)-1H-pyrazol-4-yl)-N-methylacetamide], which IC50 (MAGL) is on record?
Answer: ≤ 100 nM

Question: What about the inhibition at 1 µM (MAGL) of the same compound?
Answer: ≥ 75%

Question: And the IC50 (FAAH)?
Answer: ≤ 100 nM

Question: What about the inhibition at 1 µM (FAAH) of the same compound?
Answer: ≥ 75%

Question: What does the source list for `CC(=O)N(C)c1cnn(C(=O)N2CC3CN(Cc4cc(C(F)(F)F)ccc4Cl)CC3C2)c1` (stereo not drawn) [Example 106, N-(1-(5-(2-chloro-5-(trifluoromethyl)benzyl)octahydropyrrolo[3,4-c]pyrrole-2-carbonyl)-1H-pyrazol-4-yl)-N-methylacetamide]?
Answer: inhibition at 1 µM (MAGL): ≥ 75%; inhibition at 1 µM (FAAH): ≥ 75%

Question: How did the IC50 (MAGL) turn out when `CC(=O)N(C)c1cnn(C(=O)N2CC3CN(Cc4cccc(Cl)c4Cl)CC3C2)c1` (stereo not drawn) [Example 107, N-(1-(5-(2,3-dichlorobenzyl)octahydropyrrolo[3,4-c]pyrrole-2-carbonyl)-1H-pyrazol-4-yl)-N-methylacetamide] was run?
Answer: ≤ 100 nM

Question: And the inhibition at 1 µM (MAGL)?
Answer: ≥ 75%

Question: What about the IC50 (FAAH) of the same compound?
Answer: ≤ 100 nM

Question: What about the inhibition at 1 µM (FAAH) of the same compound?
Answer: ≥ 75%

Question: What does the source list for `CC(=O)N(C)c1cnn(C(=O)N2CC3CN(Cc4cc(C)cc(C)c4)CC3C2)c1` (stereo not drawn) [Example 108, N-(1-(5-(3,5-dimethylbenzyl)octahydropyrrolo[3,4-c]pyrrole-2-carbonyl)-1H-pyrazol-4-yl)-N-methylacetamide]?
Answer: IC50 (MAGL): 100 to 1000 nM; inhibition at 1 µM (MAGL): ≥ 75%; IC50 (FAAH): ≤ 100 nM; inhibition at 1 µM (FAAH): ≥ 75%

Question: How did the IC50 (MAGL) turn out when `CC(=O)N(C)c1cnn(C(=O)N2CC3CN(Cc4cc(Cl)ccc4Cl)CC3C2)c1` (stereo not drawn) [Example 109, N-(1-(5-(2,5-dichlorobenzyl)octahydropyrrolo[3,4-c]pyrrole-2-carbonyl)-1H-pyrazol-4-yl)-N-methylacetamide] was run?
Answer: ≤ 100 nM

Question: And the inhibition at 1 µM (MAGL)?
Answer: ≥ 75%

Question: And the IC50 (FAAH)?
Answer: ≤ 100 nM

Question: What about the inhibition at 1 µM (FAAH) of the same compound?
Answer: ≥ 75%

Question: `CC(=O)N(C)c1cnn(C(=O)N2CC3CN(Cc4cc(Cl)cc(N5CCCC5)c4)CC3C2)c1` (stereo not drawn) [Example 110, N-(1-(5-(3-chloro-5-(pyrrolidin-1-yl)benzyl)octahydropyrrolo[3,4-c]pyrrole-2-carbonyl)-1H-pyrazol-4-yl)-N-methylacetamide] was tested. Which IC50 (MAGL) did it give?
Answer: ≤ 100 nM

Question: What about the inhibition at 1 µM (MAGL) of the same compound?
Answer: ≥ 75%

Question: And the IC50 (FAAH)?
Answer: ≤ 100 nM

Question: And the inhibition at 1 µM (FAAH)?
Answer: ≥ 75%

Question: `CC(=O)N(C)c1cnn(C(=O)N2CC3CN(Cc4c(Cl)cccc4Cl)CC3C2)c1` (stereo not drawn) [Example 111, N-(1-(5-(2,6-dichlorobenzyl)octahydropyrrolo[3,4-c]pyrrole-2-carbonyl)-1H-pyrazol-4-yl)-N-methylacetamide] was tested. Which IC50 (MAGL) did it give?
Answer: ≤ 100 nM

Question: And the inhibition at 1 µM (MAGL)?
Answer: ≥ 75%

Question: And the IC50 (FAAH)?
Answer: ≤ 100 nM

Question: And the inhibition at 1 µM (FAAH)?
Answer: ≥ 75%

Question: Which results are given for `CC(=O)N(C)c1cnn(C(=O)N2CC3CN(Cc4cc(N5CCCC5)cc(C(F)(F)F)c4)CC3C2)c1` (stereo not drawn) [Example 112, N-methyl-N-(1-(5-(3-(pyrrolidin-1-yl)-5-(trifluoromethyl)benzyl)octahydropyrrolo[3,4-c]pyrrole-2-carbonyl)-1H-pyrazol-4-yl)acetamide]?
Answer: IC50 (MAGL): ≤ 100 nM; inhibition at 1 µM (MAGL): ≥ 75%; IC50 (FAAH): ≤ 100 nM; inhibition at 1 µM (FAAH): ≥ 75%

Question: What does the source list for `CC(=O)N(C)c1cnn(C(=O)N2CC3CN(Cc4ccc(Cl)cc4Cl)CC3C2)c1` (stereo not drawn) [Example 113, N-(1-(5-(2,4-dichlorobenzyl)octahydropyrrolo[3,4-c]pyrrole-2-carbonyl)-1H-pyrazol-4-yl)-N-methylacetamide]?
Answer: IC50 (MAGL): ≤ 100 nM; inhibition at 1 µM (MAGL): ≥ 75%; IC50 (FAAH): ≤ 100 nM; inhibition at 1 µM (FAAH): ≥ 75%

Question: For `CC(=O)N(C)c1cnn(C(=O)N2CC3CN(Cc4cc(N5CCOCC5)cc(C(F)(F)F)c4)CC3C2)c1` (stereo not drawn) [Example 114, N-methyl-N-(1-(5-(3-morpholino-5-(trifluoromethyl)benzyl)octahydropyrrolo[3,4-c]pyrrole-2-carbonyl)-1H-pyrazol-4-yl)acetamide], which IC50 (MAGL) is on record?
Answer: ≤ 100 nM

Question: And the inhibition at 1 µM (MAGL)?
Answer: ≥ 75%

Question: And the IC50 (FAAH)?
Answer: ≤ 100 nM

Question: And the inhibition at 1 µM (FAAH)?
Answer: ≥ 75%

Question: With `CC(=O)N(C)c1cnn(C(=O)N2CC3CN(Cc4ccc(C)cc4Cl)CC3C2)c1` (stereo not drawn) [Example 115, N-(1-(5-(2-chloro-4-methylbenzyl)octahydropyrrolo[3,4-c]pyrrole-2-carbonyl)-1H-pyrazol-4-yl)-N-methylacetamide] as the compound, how does the IC50 (MAGL) read?
Answer: ≤ 100 nM

Question: And the inhibition at 1 µM (MAGL)?
Answer: ≥ 75%

Question: And the IC50 (FAAH)?
Answer: ≤ 100 nM

Question: What about the inhibition at 1 µM (FAAH) of the same compound?
Answer: ≥ 75%

Question: For `CC(=O)N(C)c1cnn(C(=O)N2CC3CN(Cc4cc(C(F)(F)F)cc(C(F)(F)F)c4)CC3C2)c1` (stereo not drawn) [Example 116, N-(1-(5-(3,5-bis(trifluoromethyl)benzyl)octahydropyrrolo[3,4-c]pyrrole-2-carbonyl)-1H-pyrazol-4-yl)-N-methylacetamide], which IC50 (MAGL) is on record?
Answer: ≤ 100 nM

Question: What about the inhibition at 1 µM (MAGL) of the same compound?
Answer: ≥ 75%

Question: And the IC50 (FAAH)?
Answer: ≤ 100 nM

Question: And the inhibition at 1 µM (FAAH)?
Answer: ≥ 75%

Question: With `CC(=O)N(C)c1cnn(C(=O)N2CC3CN(Cc4cccc(C(F)(F)F)c4)CC3C2)c1` (stereo not drawn) [Example 117, N-methyl-N-(1-(5-(3-(trifluoromethyl)benzyl)octahydropyrrolo[3,4-c]pyrrole-2-carbonyl)-1H-pyrazol-4-yl)acetamide] as the compound, how does the IC50 (MAGL) read?
Answer: ≤ 100 nM

Question: And the inhibition at 1 µM (MAGL)?
Answer: ≥ 75%

Question: What about the IC50 (FAAH) of the same compound?
Answer: ≤ 100 nM

Question: What about the inhibition at 1 µM (FAAH) of the same compound?
Answer: ≥ 75%

Question: Which IC50 (MAGL) does the source give for `CC(=O)N(C)c1cnn(C(=O)N2CC3CN(Cc4cc(Cl)cc(N5CC6COCC6C5)c4)CC3C2)c1` (stereo not drawn) [Example 118, N-(1-(5-(3-chloro-5-(tetrahydro-1H-furo[3,4-c]pyrrol-5(3H)-yl)benzyl)octahydropyrrolo[3,4-c]pyrrole-2-carbonyl)-1H-pyrazol-4-yl)-N-methylacetamide] here?
Answer: ≤ 100 nM

Question: What about the inhibition at 1 µM (MAGL) of the same compound?
Answer: ≥ 75%

Question: What about the IC50 (FAAH) of the same compound?
Answer: ≤ 100 nM

Question: And the inhibition at 1 µM (FAAH)?
Answer: ≥ 75%

Question: For `CC(=O)N(C)c1cnn(C(=O)N2CC3CN(Cc4cccc(N5CCCC5)c4)CC3C2)c1` (stereo not drawn) [Example 119, N-methyl-N-(1-(5-(3-(pyrrolidin-1-yl)benzyl)octahydropyrrolo[3,4-c]pyrrole-2-carbonyl)-1H-pyrazol-4-yl)acetamide], which IC50 (MAGL) is on record?
Answer: ≤ 100 nM

Question: And the inhibition at 1 µM (MAGL)?
Answer: ≥ 75%

Question: What about the IC50 (FAAH) of the same compound?
Answer: ≤ 100 nM

Question: What about the inhibition at 1 µM (FAAH) of the same compound?
Answer: ≥ 75%

Question: For `CC(=O)N(C)c1cnn(C(=O)N2CC3CN(Cc4cc(Cl)cc(N5CCN(C6CC6)CC5)c4)CC3C2)c1` (stereo not drawn) [Example 120, N-(1-(5-(3-chloro-5-(4-cyclopropylpiperazin-1-yl)benzyl)octahydropyrrolo[3,4-c]pyrrole-2-carbonyl)-1H-pyrazol-4-yl)-N-methylacetamide], which IC50 (MAGL) is on record?
Answer: ≤ 100 nM

Question: And the inhibition at 1 µM (MAGL)?
Answer: ≥ 75%

Question: What about the IC50 (FAAH) of the same compound?
Answer: ≤ 100 nM

Question: And the inhibition at 1 µM (FAAH)?
Answer: ≥ 75%

Question: Which results are given for `CC(=O)N(C)c1cnn(C(=O)N2CC3CN(Cc4cccc(N5CCOCC5)c4)CC3C2)c1` (stereo not drawn) [Example 121, N-methyl-N-(1-(5-(3-morpholinobenzyl)octahydropyrrolo[3,4-c]pyrrole-2-carbonyl)-1H-pyrazol-4-yl)acetamide]?
Answer: inhibition at 1 µM (MAGL): ≥ 75%; inhibition at 1 µM (FAAH): 50 to 75%

Question: For `CC(=O)N(C)c1cnn(C(=O)N2CC3CN(Cc4ccc(F)c(Cl)c4)CC3C2)c1` (stereo not drawn) [Example 122, N-(1-(5-(3-chloro-4 fluorobenzyl)octahydropyrrolo[3,4-c]pyrrole-2-carbonyl)-1H-pyrazol-4-yl)-N-methylacetamide], which IC50 (MAGL) is on record?
Answer: 100 to 1000 nM

Question: And the inhibition at 1 µM (MAGL)?
Answer: ≥ 75%

Question: And the IC50 (FAAH)?
Answer: ≤ 100 nM

Question: And the inhibition at 1 µM (FAAH)?
Answer: ≥ 75%

Question: What does the source list for `CC(=O)N(C)c1cnn(C(=O)N2CC3CN(Cc4ccc(N5CCCC5)c(Cl)c4)CC3C2)c1` (stereo not drawn) [Example 123, N-(1-(5-(3-chloro-4-(pyrrolidin-1-yl)benzyl)octahydropyrrolo[3,4-c]pyrrole-2-carbonyl)-1H-pyrazol-4-yl)-N-methylacetamide]?
Answer: IC50 (MAGL): ≤ 100 nM; inhibition at 1 µM (MAGL): ≥ 75%; IC50 (FAAH): ≤ 100 nM; inhibition at 1 µM (FAAH): ≥ 75%

Question: Which results are given for `CC(=O)N(C)c1cnn(C(=O)N2CC3CN(Cc4ccc(C(F)(F)F)c(N5CCOCC5)c4)CC3C2)c1` (stereo not drawn) [Example 124, N-methyl-N-(1-(5-(3-morpholino-4-(trifluoromethyl)benzyl)octahydropyrrolo[3,4-c]pyrrole-2-carbonyl)-1H-pyrazol-4-yl)acetamide]?
Answer: IC50 (MAGL): ≤ 100 nM; inhibition at 1 µM (MAGL): ≥ 75%; IC50 (FAAH): ≤ 100 nM; inhibition at 1 µM (FAAH): ≥ 75%

Question: With `CC(=O)N(C)c1cnn(C(=O)N2CC3CN(Cc4cc(Cl)cc(N5CCOCC5)c4)CC3C2)c1` (stereo not drawn) [Example 125, N-(1-(5-(3-chloro-5-morpholinobenzyl)octahydropyrrolo[3,4-c]pyrrole-2-carbonyl)-1H-pyrazol-4-yl)-N-methylacetamide] as the compound, how does the IC50 (MAGL) read?
Answer: ≤ 100 nM

Question: What about the inhibition at 1 µM (MAGL) of the same compound?
Answer: ≥ 75%

Question: And the IC50 (FAAH)?
Answer: ≤ 100 nM

Question: What about the inhibition at 1 µM (FAAH) of the same compound?
Answer: ≥ 75%

Question: Which inhibition at 1 µM (MAGL) does the source give for `CC(=O)N(C)c1cnn(C(=O)N2CC3CN(Cc4cc(C(F)(F)F)ccc4C(F)(F)F)CC3C2)c1` (stereo not drawn) [Example 126, N-(1-(5-(2,5-bis(trifluoromethyl)benzyl)octahydropyrrolo[3,4-c]pyrrole-2-carbonyl)-1H-pyrazol-4-yl)-N-methylacetamide] here?
Answer: ≥ 75%

Question: What about the inhibition at 1 µM (FAAH) of the same compound?
Answer: ≥ 75%

Question: With `CC(=O)N(C)c1cnn(C(=O)N2CC3CN(Cc4cc(N5CCCC5)ccc4C(F)(F)F)CC3C2)c1` (stereo not drawn) [Example 127, N-methyl-N-(1-(5-(5-(pyrrolidin-1-yl)-2-(trifluoromethyl)benzyl)octahydropyrrolo[3,4-c]pyrrole-2-carbonyl)-1H-pyrazol-4-yl)acetamide] as the compound, how does the inhibition at 1 µM (MAGL) read?
Answer: ≥ 75%

Question: What about the inhibition at 1 µM (FAAH) of the same compound?
Answer: ≥ 75%
